Holding throughout (experiment): DTP human tumour cell line panel, 48 h
The test system of experiment [1] is A498 renal.
Experiment [2] concerns HCC-2998 colon.
For experiment [3], the system named is NCI/ADR-RES ovarian.
In experiment [4] the test system is SNB-75 CNS.
The subject of experiment [5] is NCI-H460 lung.
Experiment [6] concerns SF-268 CNS.
In experiment [7] the test system is NCI-H226 lung.
For experiment [8], the system named is SK-OV-3 ovarian.
Experiment [9] relates to OVCAR-4 ovarian.
In experiment [10] the test system is OVCAR-3 ovarian.
Experiment [11] has as its system MOLT-4 leukemia.
Experiment [12] has as its system SK-MEL-5 melanoma.
Experiment [13] relates to LOX IMVI melanoma.
Experiment [14] relates to HS 578T breast.
Experiment [15] has as its system T-47D breast.

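96-well plates; 48 h exposure; 5 concentrations. Endpoints by linear interpolation between flanking doses. Not reached: highest tested concentration assigned. Abbreviation: GI50, concentration required for 50% inhibition of growth. TGI denotes the concentration required for complete inhibition of growth.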 Bounds are passed on as bounds.

`C#CCCCC(=C)C[C@H](OCc1ccccc1)[C@H]1OC(=O)[C@@H]1C`: the TGI in [1], in experiment [2], in experiment [3], in experiment [4], in [5] and in [6] was more than 100 µM in each case. In addition, the TGI in [7], in [8], in experiment [9] and in experiment [10] was more than 100 µM each time.

`CC1(C)S[C@@H]2[C@H](NC(=O)CCC[C@@H](N)C(=O)O)C(=O)N2[C@H]1C(=O)O`: the TGI (in general, the concentration giving total growth inhibition) was more than 50 µM in experiment [1]; more than 50 µM in experiment [2]; more than 50 µM in [11]; more than 31.6 µM in [3]; more than 50 µM in experiment [4]; more than 21.6 µM in experiment [12]. Moreover, the TGI was more than 50 µM in experiment [5]; more than 50 µM in experiment [13]; more than 50 µM in experiment [6]; more than 50 µM in [7]; 49.9 µM in experiment [8]; more than 50 µM in [9]. Besides, the concentration for total growth inhibition (TGI) in [10] was more than 50 µM.

With `CCOC(=O)/C(C#N)=C(/NS(=O)(=O)c1cc(C)c(Cl)cc1[S-])[n+]1ccc(N(C)C)cc1`, the TGI in experiment [1], in experiment [2], in experiment [11], in experiment [3], in [12] and in experiment [14] was more than 100 µM throughout. Also, the TGI in [15], in [5], in experiment [6], in experiment [7], in experiment [8] and in experiment [9] was more than 100 µM in each case. Moreover, the TGI in experiment [10] was more than 100 µM.

Take `COC(=O)c1cc(C)ccc1/C=C1\Cc2cc(C)c(C)cc2C1=O`: the concentration for total growth inhibition (TGI) in experiment [1] is more than 100 µM; in experiment [2], more than 100 µM; in [11], more than 100 µM; in experiment [4], 69.5 µM; in experiment [12], more than 100 µM; in experiment [14], more than 100 µM. Besides, the TGI in experiment [15], in experiment [5], in experiment [13], in experiment [6], in [7] and in experiment [9] was more than 100 µM in each case. The TGI in experiment [10] was more than 100 µM.

For the compound `COC(=O)c1cccc(NC(=O)Nc2ccc3oc(=O)c4ccccc4c3c2)c1`, the GI50 (in general, the concentration that inhibits growth by half) in [11] was 36.2 µM; in experiment [5], more than 100 µM; in experiment [6], 3.5 µM; in experiment [8] it was more than 100 µM; in [10], more than 100 µM. Further, the TGI in experiment [11], in experiment [5], in experiment [6], in experiment [8] and in experiment [10] was more than 100 µM each time.

Take `CCOC(=O)c1sc2nc(SC)nc(Nc3ccc4c(c3)OCCCO4)c2c1N`: the TGI was more than 100 µM in experiment [1]; more than 100 µM in [2]; 8.25 µM in [11]; more than 100 µM in experiment [3]; 18.7 µM in experiment [12]; more than 100 µM in experiment [15]. For the same compound, the TGI was more than 100 µM in [13]; more than 100 µM in [6]; more than 100 µM in experiment [7]; more than 100 µM in experiment [8]; more than 100 µM in [9]; 75.9 µM in [10].

Turning to `CS(=O)(=O)c1nc(N)nc2nc[nH]c12`, the TGI in experiment [1], in experiment [2], in experiment [11], in experiment [12], in [5] and in experiment [13] was more than 100 µM each time. The TGI in experiment [6], in [7], in experiment [8], in experiment [9] and in experiment [10] was more than 100 µM each time.

For the compound `CCCCOC(=O)CN1C(=O)c2ccccc2C1=O`, the TGI in experiment [2], in [11], in experiment [4], in experiment [12], in experiment [5] and in experiment [13] was more than 100 µM throughout. For the same compound, the TGI in experiment [6], in [7], in [8], in [9] and in [10] was more than 100 µM throughout.

For `O=C(O)C(Cc1ccc(O)cn1)NC(=O)C(F)(F)F` (stereo not drawn), the TGI in [1], in experiment [2], in experiment [3], in [12], in experiment [14] and in [5] was more than 100 µM in each case. Moreover, the concentration for total growth inhibition (TGI) in [13], in [6], in experiment [7] and in [10] was more than 100 µM each time.

Turning to `NC(=O)/N=C(\N)NC(=O)c1ccccc1`, the TGI in experiment [1], in experiment [2], in experiment [11], in experiment [3], in experiment [12] and in experiment [15] was more than 100 µM each time. The TGI in [5], in experiment [13], in [7] and in experiment [10] was more than 100 µM each time.

Consider `O=C(O)C(Cc1cccs1)NC(=O)C(F)(F)F` (stereo not drawn), for which the TGI in [1], in [2], in experiment [11], in [3], in [4] and in [12] was more than 100 µM throughout. The TGI in experiment [5], in experiment [13], in experiment [6], in [7], in [8] and in [9] was more than 100 µM in each case. The TGI in [10] is more than 100 µM.

For `CC(C)[Si](OC12CCC(CC1O)CC2C(=O)O)(C(C)C)C(C)C` (stereo not drawn), the TGI in [1] is 31 µM; in experiment [11] it was more than 100 µM; in experiment [3] it was 33.6 µM; in experiment [4], 28.1 µM; in [12] it was 51.6 µM; in [15] it was 37.5 µM. The TGI was determined as 20.2 µM in experiment [5]; 27.9 µM in experiment [6]; 31.6 µM in [7]; 27.2 µM in experiment [8]; 25.1 µM in experiment [9]; 28 µM in experiment [10].

For the origin of these results see PubChem BioAssay (NCI).
